Experimental data published in ChEMBL document CHEMBL6127027, “Conserved gatekeeper methionine regulates the binding and access of kinase inhibitors to ATP sites of MAP2K1, 4, and 7: Clues for developing selective inhibitors” (Bioorg Med Chem Lett, 2024).
The source made the active and inactive calls. The calls are words filed in the database; no cut-off is given here.

Assays:
[1] = biological target: T1, Dual specificity mitogen-activated protein kinase kinase 4 (Homo sapiens, UniProt P45985); experiment: Inhibition of MAP2K4 (unknown origin)
T1 sequence (P45985 whole entry): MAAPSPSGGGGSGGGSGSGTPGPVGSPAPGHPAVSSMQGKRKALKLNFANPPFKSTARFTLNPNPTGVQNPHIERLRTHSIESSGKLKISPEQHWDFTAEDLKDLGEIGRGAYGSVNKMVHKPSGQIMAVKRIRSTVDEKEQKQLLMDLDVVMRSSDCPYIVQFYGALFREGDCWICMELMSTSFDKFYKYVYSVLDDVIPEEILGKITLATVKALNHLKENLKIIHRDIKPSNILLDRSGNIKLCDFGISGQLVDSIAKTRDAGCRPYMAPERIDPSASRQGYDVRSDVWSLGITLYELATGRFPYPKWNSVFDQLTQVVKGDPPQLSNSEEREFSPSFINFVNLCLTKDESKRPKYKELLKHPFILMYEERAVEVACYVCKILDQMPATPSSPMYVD

[2] = biological target: T2, Dual specificity mitogen-activated protein kinase kinase 4 (Homo sapiens) (UniProt P45985); experiment: Inhibition of MAP2K4 (unknown origin) at 100 uM
T2 sequence (whole entry): T1 sequence (P45985 whole entry)

[3] = biological target: T3, Dual specificity mitogen-activated protein kinase kinase 7 (Homo sapiens) (UniProt O14733); experiment: Inhibition of MAP2K7 (unknown origin) at 100 uM relative to control
T3 sequence (whole entry): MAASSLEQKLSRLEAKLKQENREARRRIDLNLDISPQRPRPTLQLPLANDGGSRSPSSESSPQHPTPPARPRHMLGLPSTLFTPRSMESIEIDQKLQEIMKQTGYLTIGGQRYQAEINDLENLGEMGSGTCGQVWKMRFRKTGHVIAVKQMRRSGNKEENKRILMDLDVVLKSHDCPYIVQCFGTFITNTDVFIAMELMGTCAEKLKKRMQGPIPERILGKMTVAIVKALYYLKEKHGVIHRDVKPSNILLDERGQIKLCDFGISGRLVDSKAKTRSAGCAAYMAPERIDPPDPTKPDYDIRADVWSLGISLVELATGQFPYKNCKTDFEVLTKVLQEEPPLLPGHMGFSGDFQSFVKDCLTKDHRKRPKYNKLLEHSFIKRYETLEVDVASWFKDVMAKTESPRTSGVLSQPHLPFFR

[4] = biological target: Dual specificity mitogen-activated protein kinase kinase 1 (Homo sapiens, UniProt Q02750); experiment: Inhibition of MAP2K1 (unknown origin)
Dual specificity mitogen-activated protein kinase kinase 1, sequence (Q02750 whole entry): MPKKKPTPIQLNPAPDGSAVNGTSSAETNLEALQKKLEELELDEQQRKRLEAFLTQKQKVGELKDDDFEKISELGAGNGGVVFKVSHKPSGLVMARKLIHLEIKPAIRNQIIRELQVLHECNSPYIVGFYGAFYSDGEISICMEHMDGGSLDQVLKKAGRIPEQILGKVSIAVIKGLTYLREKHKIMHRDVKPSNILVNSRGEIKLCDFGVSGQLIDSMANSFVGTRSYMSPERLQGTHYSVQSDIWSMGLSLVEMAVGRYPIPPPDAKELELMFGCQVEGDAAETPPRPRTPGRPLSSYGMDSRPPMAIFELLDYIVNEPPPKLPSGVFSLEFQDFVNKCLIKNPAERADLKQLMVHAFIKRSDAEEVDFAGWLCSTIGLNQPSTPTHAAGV

Compound | IC50 [1] [µM] | inhibition [2] | inhibition [3] [%] | IC50 [4] [µM]
COc1cc(O)c2c(c1)/C=C/C[C@H](O)[C@H](O)C(=O)/C=C\C[C@H](C)OC2=O | 4.7 | – | – | –
COc1cc(O)c2c(c1)/C=C/C[C@H](O)[C@H](O)C(=O)CCC[C@H](C)OC2=O | – | inactive | 25 | 5.2
